Columns and labels:
apoptosis = assay: TUNEL assay of endometriotic lesions; type: in vivo, mice; details: 3 weeks, control 8.7 ± 1.3
Experimental: The TUNEL assay is another immunohistological method used to show the amount of apoptosis, or programmed cell death, present in the uterine tissues. The TUNEL assay was performed on sections of uterine tissue according to manufacturer's instructions using ApopTag Fluorescein In Situ Apoptosis Detection Kit (# S7160, Millipore). The TUNEL assay, which identifies cells undergoing apoptosis, was semiquantitatively analyzed using areas of 0.02 mm^2 (3 different areas counted from each section, with sections obtained from 4 different lesions), and semiquantitatively analyzed.

PGR = assay: Immunohistochemistry of endometriotic lesions, PGR; type: in vivo, mice; details: 3 weeks; for % of PGR positive cells/total cells/0.007 mm^2, Stroma: control 47.2 ± 4.0; for % of PGR positive cells/total cells/0.007 mm^2, Epithelium: control 76.7 ± 7.0
Excerpt: (§1) The presence and location of different proteins in the tissues obtained from the recipient mice. Samples of uterine tissue were isolated from the recipient mice, fixed by standard histological methods, and embedded in paraffin. Thin sections (5 μm) of the paraffin-embedded tissues were screened with standard immunohistochemical methods using antibodies to identify the expression of in the uterine tissues.
(§2) Primary antibodies that recognized MKI67 (Ki67), PECAM1 (CD31), ESR1, PGR, p-CHUK (IKK), p-STAT3, NOS2 (iNOS) and PTGS2 (COX2), and Vectastain Elite ABC Kit (# PK-6101), Mouse on Mouse Basic Kit (# BMK-2202, Vector laboratories) or DyLight-conjugated secondary antibody (#711-516-152, Jackson ImmunoResearch Lab) were used to show the presence of the proteins in the tissues, which were examined under microscopes.
(§3) The primary antibodies used in these analyses were: anti-MKI67 (Ki67, 1:200 dilution, 550609, BD Biosciences), anti-PECAM1 (CD31, 1:100 dilution, ab28364, Abcam), anti-ESR1 (1:100 dilution, sc-542, Santa Cruz Biotechnology), anti-PGR (1:200 dilution, RB-9017-P0, Thermo Scientific), anti-p-CHUK (IKK, 1:150 dilution, 2697, Cell Signaling Technology), anti-p-STAT3 (1:50 dilution, 9145, Cell Signaling Technology), anti-NOS2 (iNOS, 1:50 dilution, 610333, BD Biosciences) and anti-PTGS2 (COX2, 1:50 dilution, RM-9121, Thermo Scientific).
(§4) The expression of MKI67, ESR1, PGR, p-CHUK, p-STAT3, NOS2 and PTGS2 proteins in uterine tissues, as determined by immunohistochemical analysis of uterine tissue sections, was semiquantitatively analyzed. Levels of apoptosis were analyzed by TUNEL assay and also semiquantitatively analyzed. Histological sections were obtained from 4 different lesions. For each section, three different areas measuring 0.007 mm^2 were chosen. In each of those areas, the total number of epithelial or stromal cells was counted, as was the number of cells that tested positive for expressing MKI67 (a marker of cellular proliferation), steroid receptors ESR1 and PGR, and inflammatory signaling molecules p-CHUK, p-STAT3, NOS2 and PTGS2 proteins.

p-CHUK (IKK) = assay: Immunohistochemistry of endometriotic lesions, p-CHUK; type: in vivo, mice; details: 3 weeks
Excerpt: as §4, with “The presence and location of different proteins in the tissues obtained from the recipient mice. Samples of uterine tissue were isolated from the recipient mice, fixed by standard histological methods, and embedded in paraffin. Thin sections (5 μm) of the paraffin-embedded tissues were screened with standard immunohistochemical methods using antibodies to identify the expression of in the uterine tissues. […] The expression” for “The expression”, “semiquantitatively analyzed. […] Histological sections” for “semiquantitatively analyzed. Histological sections”

p-STAT3 = assay: Immunohistochemistry of endometriotic lesions, p-STAT3; type: in vivo, mice; details: 3 weeks; for % of p-STAT3 positive cells/total cells/0.007 mm^2, Stroma: control 11.5 ± 4.4
Excerpt: as §4, with “The presence and location of different proteins in the tissues obtained from the recipient mice. Samples of uterine tissue were isolated from the recipient mice, fixed by standard histological methods, and embedded in paraffin. Thin sections (5 μm) of the paraffin-embedded tissues were screened with standard immunohistochemical methods using antibodies to identify the expression of in the uterine tissues. […] The expression” for “The expression”, “semiquantitatively analyzed. […] Histological sections” for “semiquantitatively analyzed. Histological sections”

PTGS2 (COX2) = assay: Immunohistochemistry of endometriotic lesions, PTGS2; type: in vivo, mice; details: 3 weeks; for % of PTGS2 positive cells/total cells/0.007 mm^2, Stroma: control 20.1 ± 2.2; for % of PTGS2 positive cells/total cells/0.007 mm^2, Epithelium: control 98.4 ± 0.5
Excerpt: as §1, §2, §3, §4
The expression of PTGS2 (COX2), an inflammatory molecule […] by NFκB and STAT3 signaling, was examined with a primary antibody against PTGS2.

endometriotic lesions = assay: Endometriotic lesions examined on PND 21 (Study 2); type: in vivo, mice; details: 200 mg/kg b.w./day; examined 3 weeks after the final dosage
Experimental: The sham surgery was performed following the same steps as the endometriosis surgery except that no donor tissues were implanted onto the peritoneal walls of those mice; only sutures were applied to the peritoneal walls. […] The recipient mice continued receiving oral daily niclosamide treatments until mouse pups were born, after which niclosamide treatment was discontinued. Three weeks after the pups were born, on postnatal day (PND) 21, the recipient mice were necropsied and the pups were weaned. For each mated mouse, the following parameters were measured and recorded: the time of the formation of the vaginal plug after mating (days); the length of time that the mated mouse gestated or was pregnant (days); the number of pups born to each mated mouse; and the size and volume of the endometriotic lesions harvested from the mice after necropsy. Tissues were harvested from the mice, including endometriotic lesions and peritoneal walls to analyze the expression of proteins and genes of interest.

[1] = ORGANIZATION WH, 2002; cited from earlier work

O=C(Nc1ccc([N+](=O)[O-])cc1Cl)c1cc(Cl)ccc1O [niclosamide, 5-chloro-N-(2-chloro-4-nitrophenyl)-2-hydroxybenzamide]
Cell number of TUNEL positive cells/0.02 mm^2 (apoptosis; 100 mg/kg b.w./day oral): 8.2 ± 1.3 cells/0.02 mm^2 | Cell number of TUNEL positive cells/0.02 mm^2 (apoptosis; 200 mg/kg b.w./day oral): 7.8 ± 1.0 cells/0.02 mm^2 | % of PGR positive cells/total cells/0.007 mm^2, Stroma (PGR; 100 mg/kg b.w./day oral): 58.1 ± 5.2% | % of PGR positive cells/total cells/0.007 mm^2, Epithelium (PGR; 100 mg/kg b.w./day oral): 60.4 ± 10.7% | % of PGR positive cells/total cells/0.007 mm^2, Stroma (PGR; 200 mg/kg b.w./day oral): 50.1 ± 6.9% | % of PGR positive cells/total cells/0.007 mm^2, Epithelium (PGR; 200 mg/kg b.w./day oral): 69.9 ± 12.2% | % of p-CHUK positive cells/total cells/0.007 mm^2, Stroma (p-CHUK (IKK); 100 mg/kg b.w./day oral, control 83.4 ± 4.7): 86.3 ± 4.0% | % of p-CHUK positive cells/total cells/0.007 mm^2, Epithelium (p-CHUK (IKK); 100 mg/kg b.w./day oral, control 97.9 ± 2.1): 92.3 ± 3.8% | % of p-CHUK positive cells/total cells/0.007 mm^2, Stroma (p-CHUK (IKK); 200 mg/kg b.w./day oral, control 83.4 ± 4.7, p < 0.01): 56.2 ± 8.3 % | % of p-CHUK positive cells/total cells/0.007 mm^2, Epithelium (p-CHUK (IKK); 200 mg/kg b.w./day oral, control 97.9 ± 2.1, p < 0.05): 76.7 ± 9.2 % | % of p-STAT3 positive cells/total cells/0.007 mm^2, Stroma (p-STAT3; 100 mg/kg b.w./day oral): 6.9 ± 1.9% | % of p-STAT3 positive cells/total cells/0.007 mm^2, Epithelium (p-STAT3; 100 mg/kg b.w./day oral, control 54.1 ± 3.9): 59.0 ± 5.4% | % of p-STAT3 positive cells/total cells/0.007 mm^2, Stroma (p-STAT3; 200 mg/kg b.w./day oral): 4.1 ± 1.0% | % of p-STAT3 positive cells/total cells/0.007 mm^2, Epithelium (p-STAT3; 200 mg/kg b.w./day oral, control 54.1 ± 3.9, p < 0.001): 26.4 ± 3.8 % | % of PTGS2 positive cells/total cells/0.007 mm^2, Stroma (PTGS2 (COX2); 100 mg/kg b.w./day oral): 20.3 ± 3.3% | % of PTGS2 positive cells/total cells/0.007 mm^2, Epithelium (PTGS2 (COX2); 100 mg/kg b.w./day oral): 98.2 ± 0.5% | % of PTGS2 positive cells/total cells/0.007 mm^2, Stroma (PTGS2 (COX2); 200 mg/kg b.w./day oral): 22.8 ± 2.0% | % of PTGS2 positive cells/total cells/0.007 mm^2, Epithelium (PTGS2 (COX2); 200 mg/kg b.w./day oral): 98.7 ± 0.7% | lesion sizes on PND 21 (endometriotic lesions): maintained the reduction of lesion sizes | water solubility [1]: < 20 µM
